Values of other authors as cited in patent publication US20070105828A1, “Novel polymorph form M of mifepristone and process for its preparation” (Glenmark Pharmaceuticals Limited, priority 2005, published 2007).

Target: glucocorticoid receptor (Homo sapiens, UniProt P04150)
Conditions: relative to dexamethasone; background statement

Chain of glucocorticoid receptor (P04150 whole entry, species assumed): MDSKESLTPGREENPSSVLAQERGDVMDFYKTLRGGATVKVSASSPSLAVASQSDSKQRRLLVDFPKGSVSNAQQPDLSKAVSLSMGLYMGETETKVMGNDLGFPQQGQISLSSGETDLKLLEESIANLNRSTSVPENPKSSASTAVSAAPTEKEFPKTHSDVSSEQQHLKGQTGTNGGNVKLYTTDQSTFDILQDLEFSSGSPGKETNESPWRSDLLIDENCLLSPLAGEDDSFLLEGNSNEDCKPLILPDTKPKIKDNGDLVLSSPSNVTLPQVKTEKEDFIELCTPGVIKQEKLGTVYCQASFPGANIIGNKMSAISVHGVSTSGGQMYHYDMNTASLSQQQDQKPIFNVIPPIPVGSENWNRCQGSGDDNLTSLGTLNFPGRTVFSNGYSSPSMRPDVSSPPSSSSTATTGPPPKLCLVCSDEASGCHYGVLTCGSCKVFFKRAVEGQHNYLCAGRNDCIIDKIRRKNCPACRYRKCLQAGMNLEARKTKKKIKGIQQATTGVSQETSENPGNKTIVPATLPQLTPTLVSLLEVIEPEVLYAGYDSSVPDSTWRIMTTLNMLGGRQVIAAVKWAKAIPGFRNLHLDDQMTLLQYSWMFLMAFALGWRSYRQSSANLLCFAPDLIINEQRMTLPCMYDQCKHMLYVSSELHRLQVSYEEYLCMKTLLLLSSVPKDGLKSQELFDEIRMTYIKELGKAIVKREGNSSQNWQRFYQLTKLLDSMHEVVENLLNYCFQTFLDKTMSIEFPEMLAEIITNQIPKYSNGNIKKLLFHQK

For `CC#C[C@]1(O)CC[C@H]2[C@@H]3CCC4=CC(=O)CCC4=C3[C@@H](c3ccc(N(C)C)cc3)C[C@@]21C` [Mifepristone, (11β,17β)-11-[4-(N,N-dimethylamino)phenyl]-17-hydroxy-17-(1-propynyl)estra-4,9-diene-3-one], the “affinity for the glucocorticoid receptor compared with dexamethasone” value is given as “three times greater than that of dexamethasone”.
